In patent publication US4645774A, “Aminoethoxybenzylalcohol derivatives, process for their preparation and pharmaceutical compositions containing them” (Richter Gedeon Vegyeszeti Gyar Rt, priority 1982, dated 1987):

Legend:
acute toxicity = experiment: acute toxicity; design: species or system rat (H-Wistar, both sexes); settings: rat, in vivo, po; for mortality at 336 h: 500 mg./kg. p.o. single dose, 14 days observation, n=10, read-out: Perished animals
Protocol: The acute toxicity of the compounds of the formula (I) was determined on H-Wistar rats of both sexes, each weighing 160 to 180 g. The compounds were administered in a single 500 mg./kg. dose, orally.

hexobarbital oxidase = experiment: in vivo measurement of hexobarbital oxidase activity (hexobarbital narcosis period); design: species or system rat (female Hann.-Wistar); settings: 40 mg./kg. oral single dose, n=10, mean ± S.E.; for Narcosis period in % of the control, 1 hour: hexobarbital sodium 60 mg./kg. i.v. 1 hour after; for Narcosis period in % of the control, 24 hours: hexobarbital sodium 60 mg./kg. i.v. 24 hours after
Protocol: The enzyme-inducing potency of the new compounds according to the invention was determined by several methods. One of these methods was the in vivo measurement of hexobarbital oxidase activity.
To determine the change of hexobarbital oxidase activity female Hann.-Wistar rats, each weighing 50 to 60 g. were treated orally with a single 40 mg./kg. dose of the active agent. One and 24 hours after the administration of the active agent, respectively, the animals were narcotized with a 60 mg./kg. i.v. dose of hexobarbital sodium, and the time elapsed until complete wakening from ceasing of the righting reflex was measured (Noordhoex J.: Eur. J. Pharmacol, 3, 242, 1968). As a reference compound phenobarbital was used. The data were recorded, and the mean values, the standard errors, as well as the percentage increase with respect to the control were calculated for each group. Abbreviations:
S.E.=standard error of the mean value,
The control group was treated with a placebo. [formula] A=α-ethyl-α-(3-trifluoromethylphenyl)-4-[2-(piperidin-l-yl)-eth oxy]-benzylalcohol;

mice and rats = assay type: in vivo; settings: orally, even in a dose of 40 mg./kg.
Source text: The central nervous activities of the compounds according to the invention were examined on mice and rats with the following methods: electroshock (Swinyard, E. A., Brown, W. C., Goodman, L. S.: J. Pharmacol. Exp. Ther. 106, 319 (1952)), metrazole spasm (Everett, G. M., Richards, R. K.: J. Pharmacol. Exp. Ther. 81, 402 (1944)), thiosemicarbazide spasm ( Da Venzo, J. P., Greig, M. E., Cormin, M. A.: Amer. J. Physiol. 201, 833 (1961)), strychnine spasm (Kerley, T. L., Richards, A. G., Begley, R. W., Abreu, B. B., Wesver, L. C.: J. Pharmacol. Exp. Ther. 132, 360 (1961)), nicotine spasm (Stone, C. A., Mecklenburg, K. L., Torhans, M. L.: Arch. Int. Pharmacodyn. 117, 419 (1958)), rotarod test (Kinnard, W. C., Carr, C. J.: J. Pharmacol. Expt. Ther. 121, 354 (1957)), physostigmine lethality preventing effect (Nose, T., Kojima, M.: Europ. J. Pharmacol. 10, 83 (1970)), yohimbine potentiation effect (Quinton, R. M.: Brit. J. Pharmacol. 21, 51 (1963)), and analgesic activity (Bianchi, G., Francheschini, J.: Brit. J. Pharm. Chemother. 9, 280 (1954)).
As a reference substance, phenobarbital was used. […].

[1] = tested on: NADPH: ferricytochrome C (P-450) reductase (E.C. 1.6.2.4); experiment: activity of NADPH: ferricytochrome C (P-450) reductase; assay type: in vivo, rat (female H. Wistar); settings: 40 mg./kg. single oral dose, 24 hours; control 4686 ± 286.2; ± S.E.
Protocol: (§1) The enzyme inducing activity of the compounds of the formula (I) was further tested by determining the activity of the polysubstrate monooxygenase enzyme system of the liver after treatment with a placebo and the compounds according to the invention, respectively. Female H. Wistar rats each weighing 50 to 60 g. were administered a single 40 mg./kg. dose of the test compounds, orally. 24 hours after treatment the animals were decapitated and the livers were eliminated. […] The cytochrome P-450 concentration was determined from the carbon monoxide differential spectrum of a reduced microsomal suspension (Omura T. et al.: J. Biol. Chem. 239, 2370 (1964)), the quantity of cytochrome b-5 was determined from a NADH differential spectrum (Raw J. et al.: J. Biol. Chem. 234, 1867 (1959)). The activity of NADPH: ferricytochrome C (P-450) reductase (E.C. 1.6.2.4) was measured according to Williams C. […] The activity of aniline hydroxylase was determined according to Chhabra R. S. et al.: Toxicol. […] Pharmacol., 22, 50 (1972) by measuring the velocity of p-aminophenol formation, while the […] activity was determined on the basis of the quantity of formaldehyde formed, following the method of Gourlay G. K. et al.: Biochem. Pharmacol., 27, 965 (1978). […]

[2] = tested on: aminopyridine demethylase; experiment: aminopyridine demethylase activity (formaldehyde formed); assay type: in vivo, rat (female H. Wistar); settings: 40 mg./kg. single oral dose, 24 hours; control 254.8 ± 7.47; ± S.E.
Protocol: as §1

liver = experiment: Relative weight of liver after treatment; assay type: in vivo, rat (female H. Wistar); settings: 40 mg./kg. single oral dose, 24 hours; control 4.3 ± 0.17; ± S.E.
Protocol: as §1

aniline hydroxylase = experiment: activity of aniline hydroxylase (p-aminophenol formation); assay type: in vivo, rat (female H. Wistar); settings: 40 mg./kg. single oral dose, 24 hours; control 20.3 ± 0.88; ± S.E.
Protocol: as §1

Cytochrome P-450 = Cytochrome P-450 concentration from carbon monoxide differential spectrum; assay type: in vivo, rat (female H. Wistar); settings: 40 mg./kg. single oral dose, 24 hours; control 12.8 ± 0.63; ± S.E.
Protocol: as §1

Microsomal protein = Microsomal protein of the liver after treatment; assay type: in vivo, rat (female H. Wistar); settings: 40 mg./kg. single oral dose, 24 hours; control 29.3 ± 1.01; ± S.E.
Protocol: as §1

Cytochrome b-5 = Cytochrome b-5 quantity from NADH differential spectrum; assay type: in vivo, rat (female H. Wistar); settings: 40 mg./kg. single oral dose, 24 hours; control 8.6 ± 0.43; ± S.E.
Protocol: as §1

Row | SMILES | LD50 (acute toxicity; footnote x of Table 3) | Narcosis period in % of the control, 1 hour (hexobarbital oxidase) | Narcosis period in % of the control, 24 hours (hexobarbital oxidase) | central nervous activities (mice and rats) | c(P-450)reductase (nmoles/g. of liver/min.), % of control [1] | Aminopyridine demethylase (nmoles/g./min.), % of control [2] | Relative weight of liver (g./100 g. of body weight), % of control (liver) | mortality at 336 h (acute toxicity) | Aniline hydroxylase (nmoles/g. of liver/min.), % of control (aniline hydroxylase) | Cytochrome P-450 (nmoles/g. of liver), % of control (Cytochrome P-450) | Microsomal protein (mg./g. of liver), % of control (Microsomal protein) | Cytochrome b-5 (nmoles/g. of liver), % of control (Cytochrome b-5)
1 | CCC1(c2ccccc2)C(=O)NC(=O)NC1=O [phenobarbital, reference compound] | 245 mg/kg | 250 ± 15.8% | 60 ± 7.3% | strong anticonvulsive muscle-coordinating and sedative effects |  |  |  |  |  |  |  | 
2 | CCC(O)(c1ccc(F)cc1)c1ccc(OCCN2CCCCC2)cc1 (stereo not drawn) [D, α-Ethyl-α-(4-fluorophenyl)-4-[2-(piperidin-1-yl)-ethoxy]-benzylalcohol] |  | 120 ± 4.2% | 53 ± 3.7% |  | 178 ± 16.2% | 123 ± 7.8% | 122 ± 4.9% | 0% | 131 ± 5.9% | 163 ± 8.7% | 111 ± 4.2% | 116 ± 4.8%
3 | CCC(O)(c1ccc(OCCN2CCCC2)cc1)c1ccccc1OC (stereo not drawn) [C, α-Ethyl-α-(2-methoxyphenyl)-4-[2-(pyrrolidin-1-yl)-ethoxy]-benzylalcohol] |  | 113 ± 12.0% | 57 ± 7.8% |  |  |  |  | 0% |  |  |  | 
4 | CCC(O)(c1ccc(OCCN(C)C)cc1)c1cccc(C(F)(F)F)c1 (stereo not drawn) [B, α-ethyl-α-(3-trifluoromethylphenyl)-4-[2-(dimethylamino)-ethoxy]-benzylalcohol] |  | 180 ± 10.0% | 49 ± 3.3% |  |  |  |  | 0% |  |  |  | 
5 | CCC(O)(c1ccc(OCCN2CCCCC2)cc1)c1cccc(C(F)(F)F)c1 (stereo not drawn) [A, α-Ethyl-α-(3-trifluoromethylphenyl)-4-[2-(piperidin-1-yl)-ethoxy]-benzylalcohol] |  | 177 ± 5.0% | 49 ± 0.7% |  |  |  |  | 0% |  |  |  | 
